Laboratory results published in ChEMBL document CHEMBL1201862, “PubChem BioAssay data set” (2004).
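Grown in 96-well plates, cells were treated for 48 hours with each compound at five concentrations. Insufficient inhibition: endpoint recorded as highest concentration tested. GI50 = concentration required for 50% inhibition of growth.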 The source made the active and inactive calls. Cut-off read from the data, not from the text of the source: active = GI50 up to about 1.1 µM and inactive = higher.

Legend:
Experiment in all cases: inhibition of tumour cell growth, NCI panel, 48 h
A549 = system: A549
DU-145 = system: DU-145
EKVX = system: EKVX
HCT-116 = system: HCT-116
HCT-15 = system: HCT-15
HT-29 = system: HT-29
MCF7 = system: MCF7
MDA-MB-435 = system: MDA-MB-435
MOLT-4 = system: MOLT-4
NCI-H522 = system: NCI-H522
OVCAR-3 = system: OVCAR-3
OVCAR-5 = system: OVCAR-5
PC-3 = system: PC-3
SF-268 = system: SF-268
SF-295 = system: SF-295
SF-539 = system: SF-539
SK-MEL-2 = system: SK-MEL-2
T47D = system: T47D
TK-10 = system: TK-10

COc1ccc(N(CC(=O)O)N=O)cc1
GI50 (A549): > 100 µM (inactive) | GI50 (DU-145): > 100 µM (inactive) | GI50 (EKVX): > 100 µM (inactive) | GI50 (HCT-116): > 100 µM (inactive) | GI50 (HCT-15): > 100 µM | GI50 (HT-29): > 100 µM (inactive) | GI50 (MCF7): > 100 µM (inactive) | GI50 (MDA-MB-435): > 100 µM (inactive) | GI50 (MOLT-4): > 100 µM (inactive) | GI50 (NCI-H522): > 100 µM (inactive) | GI50 (OVCAR-3): > 100 µM (inactive) | GI50 (OVCAR-5): > 100 µM (inactive) | GI50 (PC-3): > 100 µM (inactive) | GI50 (SF-268): > 100 µM (inactive) | GI50 (SF-295): > 100 µM (inactive) | GI50 (SF-539): > 100 µM (inactive) | GI50 (SK-MEL-2): > 100 µM (inactive) | GI50 (T47D): > 100 µM (inactive) | GI50 (TK-10): > 100 µM (inactive)

O=c1oc2ccc(Cl)cc2c2ccccc12
GI50 (A549): 63.4 µM (inactive) | GI50 (DU-145): > 100 µM (inactive) | GI50 (EKVX): 10.8 µM (inactive) | GI50 (HCT-116): 76.2 µM (inactive) | GI50 (HCT-15): > 100 µM | GI50 (HT-29): > 100 µM (inactive) | GI50 (MCF7): 53.2 µM (inactive) | GI50 (MDA-MB-435): > 100 µM (inactive) | GI50 (MOLT-4): > 100 µM (inactive) | GI50 (NCI-H522): 48.5 µM (inactive) | GI50 (OVCAR-3): > 100 µM (inactive) | GI50 (OVCAR-5): 78.3 µM (inactive) | GI50 (PC-3): > 100 µM (inactive) | GI50 (SF-268): 20.7 µM (inactive) | GI50 (SF-295): 34.4 µM (inactive) | GI50 (SF-539): > 100 µM (inactive) | GI50 (SK-MEL-2): 18.6 µM (inactive) | GI50 (T47D): > 100 µM (inactive) | GI50 (TK-10): 51.6 µM (inactive)

CCCCC(=O)Nc1ccc2cc(C(=O)OC)c(Cl)nc2n1
GI50 (A549): > 100 µM (inactive) | GI50 (DU-145): 3.11 µM (inactive) | GI50 (EKVX): 59.7 µM (inactive) | GI50 (HCT-116): > 93.5 µM (inactive) | GI50 (HCT-15): > 100 µM | GI50 (HT-29): > 100 µM (inactive) | GI50 (MCF7): 13.3 µM (inactive) | GI50 (MDA-MB-435): > 100 µM (inactive) | GI50 (MOLT-4): > 100 µM (inactive) | GI50 (NCI-H522): > 100 µM (inactive) | GI50 (OVCAR-3): 7.59 µM (inactive) | GI50 (OVCAR-5): > 100 µM (inactive) | GI50 (PC-3): 19.7 µM (inactive) | GI50 (SF-268): > 100 µM (inactive) | GI50 (SF-295): 40.1 µM (inactive) | GI50 (SF-539): > 100 µM (inactive) | GI50 (SK-MEL-2): > 100 µM (inactive) | GI50 (T47D): 7.89 µM (inactive) | GI50 (TK-10): > 71.3 µM (inactive)

COc1cc2[nH]c(=O)c3cc(-c4ccccc4)cc4c(Cl)nc(c1OC)c2c43
GI50 (A549): 23.2 µM (inactive) | GI50 (DU-145): 23.6 µM (inactive) | GI50 (EKVX): 14 µM (inactive) | GI50 (HCT-116): 3.1 µM (inactive) | GI50 (HCT-15): 9.55 µM | GI50 (HT-29): 3.92 µM (inactive) | GI50 (MCF7): 2.36 µM (inactive) | GI50 (MDA-MB-435): 2.81 µM (inactive) | GI50 (MOLT-4): 4.63 µM (inactive) | GI50 (NCI-H522): 3.77 µM (inactive) | GI50 (OVCAR-3): 3.79 µM (inactive) | GI50 (OVCAR-5): 49.4 µM (inactive) | GI50 (PC-3): 4.86 µM (inactive) | GI50 (SF-268): 16.1 µM (inactive) | GI50 (SF-295): > 49.4 µM (inactive) | GI50 (SF-539): 0.63 µM (active) | GI50 (SK-MEL-2): 15.1 µM (inactive) | GI50 (T47D): 24.4 µM (inactive) | GI50 (TK-10): 29.6 µM (inactive)

NC(Cc1ccc(N(CCCl)CCCl)cc1)C(=O)NC(CCC(=O)O)C(=O)O (stereo not drawn)
GI50 (A549): > 100 µM (inactive) | GI50 (DU-145): > 100 µM (inactive) | GI50 (EKVX): > 100 µM (inactive) | GI50 (HCT-116): > 100 µM (inactive) | GI50 (HCT-15): > 100 µM | GI50 (HT-29): > 100 µM (inactive) | GI50 (MCF7): > 100 µM (inactive) | GI50 (MDA-MB-435): > 100 µM (inactive) | GI50 (MOLT-4): > 100 µM (inactive) | GI50 (NCI-H522): > 100 µM (inactive) | GI50 (OVCAR-3): > 100 µM (inactive) | GI50 (OVCAR-5): > 100 µM (inactive) | GI50 (PC-3): > 100 µM (inactive) | GI50 (SF-268): > 100 µM (inactive) | GI50 (SF-295): > 100 µM (inactive) | GI50 (SF-539): > 100 µM (inactive) | GI50 (SK-MEL-2): > 100 µM (inactive) | GI50 (T47D): > 100 µM (inactive) | GI50 (TK-10): > 100 µM (inactive)

c1ccc(C(CCN2CC3CCC(CC3)C2)c2ccccc2)cc1
GI50 (A549): 31.2 µM (inactive) | GI50 (DU-145): 38.4 µM (inactive) | GI50 (EKVX): 37.8 µM (inactive) | GI50 (HCT-116): 20.1 µM (inactive) | GI50 (HCT-15): 21.8 µM | GI50 (HT-29): 13.9 µM (inactive) | GI50 (MCF7): 15.6 µM (inactive) | GI50 (MDA-MB-435): 25.1 µM (inactive) | GI50 (MOLT-4): 18.2 µM (inactive) | GI50 (NCI-H522): 16.6 µM (inactive) | GI50 (OVCAR-3): 20.2 µM (inactive) | GI50 (OVCAR-5): 20.1 µM (inactive) | GI50 (PC-3): 31.5 µM (inactive) | GI50 (SF-268): 25.6 µM (inactive) | GI50 (SF-295): 26 µM (inactive) | GI50 (SF-539): 16 µM (inactive) | GI50 (SK-MEL-2): 20.5 µM (inactive) | GI50 (T47D): 20 µM (inactive) | GI50 (TK-10): 23.1 µM (inactive)

O=[N+]([O-])/C(C(Cl)=C(Cl)Cl)=C1/OCCS1
GI50 (A549): 23.3 µM (inactive) | GI50 (DU-145): 42.2 µM (inactive) | GI50 (EKVX): 32.1 µM (inactive) | GI50 (HCT-116): 18 µM (inactive) | GI50 (HCT-15): 21.3 µM | GI50 (HT-29): 27.5 µM (inactive) | GI50 (MCF7): 61.4 µM (inactive) | GI50 (MDA-MB-435): 22.6 µM (inactive) | GI50 (MOLT-4): 17.9 µM (inactive) | GI50 (NCI-H522): 32.4 µM (inactive) | GI50 (OVCAR-3): 14.4 µM (inactive) | GI50 (OVCAR-5): 32.4 µM (inactive) | GI50 (PC-3): 35.9 µM (inactive) | GI50 (SF-268): 25.5 µM (inactive) | GI50 (SF-295): 33.9 µM (inactive) | GI50 (SF-539): 21.3 µM (inactive) | GI50 (SK-MEL-2): 27.7 µM (inactive) | GI50 (T47D): 37.2 µM (inactive) | GI50 (TK-10): 25.9 µM (inactive)
